According to article PMC1190152, “Archazolid and apicularen: Novel specific V-ATPase inhibitors” (BMC Biochemistry, 2005):
Like-named read-outs stand apart in the source and are kept apart here.

Columns and labels:
PtK2 cells = test: Inhibition of lysosomal acidification (LysoTracker staining); format: cell-based, potoroo; conditions: 4 hours with inhibitor
Experimental: PtK2 (ATCC CCL-56) or KB-3-1 cells were grown on glass coverslips (13 mm diameter) in four-well-plates. Exponentially growing cells were incubated with the inhibitors for 4 hours and stained for lysosomes with 50 nM LysoTracker Red DND-99 and for mitochondria with 75 nM MitoTracker Green FM (both from Molecular Probes) at 37°C for 30 min. The nuclei were stained using Hoechst 33258 (5 μg/ml). The coverslips were mounted upside down in PBS, fixed with nail polish, and observed under the fluorescent microscope.

Na+/K+-ATPase = molecular target: T1, Na+/K+-ATPase (Sus scrofa, UniProt P05024); test: Inhibition of Na+/K+-ATPase from pig kidney; format: biochemical; conditions: inhibitor 1 μM
T1 construct: highly purified, Na^+/K^+-ATPase containing plasma membranes from pig kidney; from tissue; host or cells: pig kidney, purified plasma membranes
Experimental: (§1) The V-ATPase holoenzyme was purified as published elsewhere. Preparation of highly purified membranes containing Na^+/K^+-ATPase from pig kidney followed the protocol of Jørgensen with the three main steps of differential centrifugation, incubation with SDS in the presence of ATP and sucrose density gradient centrifugation in a fixed angle rotor, and led to a specific enzyme activity which was in the same range as that reported by the authors. The resulting sample was stored frozen at -20°C. To prepare crude membrane extracts, the hearts of three mice were washed three times with an ice-cold buffer of pH 8.1 consisting of 0.25 M sucrose, 5 mM Tris-HCl, 5 mM EDTA, and 10 mM Pefabloc SC (Biomol), homogenized in 5 ml of this buffer and centrifuged at 4°C for 25 min at 233,000 × gmax in a fixed angle rotor. The resulting pellet was resuspended in 5 ml of a buffer of pH 7.5, consisting of 5 mM Tris-MOPS (3-morpholinopropanesulfonic acid), 10 mM NaCl, 10 mM Pefabloc SC, 9.6 mM 2-mercaptoethanol, 0.53 mM EGTA and 0.1 % Triton X-100. After an aliquot for protein determination had been taken, 10% bovine serum albumin (final concentration) was added to the suspension which was then stored on ice until the activity assays were run. Beef heart mitochondria were isolated by differential centrifugation, following the protocol of Smith by using a blender to homogenize the heart mince. The initial homogenization buffer consisted of 250 mM saccharose, 10 mM KH2PO4, 10 mM Tris, 2 mM EGTA, 2 mM MgCl2, pH 7.4, and further isolation procedures were carried out in the same medium without EGTA [24]. Submitochondrial particles were obtained by ultrasonic treatment of the mitochondria.
(§2) Standard V-ATPase assays with a final volume of 160 μl and a pH of 8.1 consisted of 3–4 μg of protein, 50 mM Tris-MOPS, 3 mM 2-mercaptoethanol, 1 mM MgCl2, 20 mM KCl, 0.003% C12E10, 20 mM NaCl, and 3 mM Tris-HCl. After 5 min of pre-incubation at 30°C with or without inhibitors, 1 mM Tris-ATP was added and after incubation for 2 min the reaction was stopped by placing the tube in liquid nitrogen. Assays using Na^+/K^+-ATPase were performed in 160 μl at pH 7.5 and contained 0.5 μg of protein, 50 mM Tris-MOPS, 5 mM imidazole, 0.2 mM EDTA, 4 mM MgCl2, 20 mM KCl and 100 mM NaCl. After 5 min of pre-incubation at 37°C with or without inhibitors, 3 mM Tris-ATP was added and after 1 min of incubation the reaction was stopped by placing the tube in liquid nitrogen. […] After 5 min of pre-incubation at 30°C with or without inhibitors, 1 mM Tris-ATP was added and after an incubation time of 10 min the reaction was stopped by placing the tubes in liquid nitrogen. ATPase assays with submitochondrial particles from beef heart were performed in a final volume of 1 ml and a pH of 8.0. The samples contained 9–12 μg protein, 50 mM Tris, 50 mM KCl and 2.5 mM MgCl2. After 5 min of preincubation with or without inhibitors, 5 mM ATP was added, and after an additional incubation time of 15 min the reaction was stopped by the addition of 0.4 ml of 20 % TCA.
(§3) Inorganic phosphate produced in the assays of V-ATPase, Na^+/K^+-ATPase and mouse heart F-ATPase was measured according the protocol of Wieczorek et al., while the determination of inorganic phosphate produced in the assays of beef heart F-ATPase followed the method of Fiske and Subarrow using ascorbic acid as reducing agent.

A-594 [1] = test: Growth inhibition of A-594 cells (MTT assay); format: cell-based, human; conditions: 120 h, read-out: IC50 growth inhibition
Experimental: (§4) Cell lines were obtained from the German Collection of Microorganisms and Cell Cultures (DSMZ). Cell lines 3Y1 and M1 (embryonal fibroblasts from 129/Ola × C57BL/6 mice, [30]) were a generous gift from Dr. S. Miyamoto, Fukoka, Japan, and Dr. P. F. Mühlradt, Braunschweig, Germany. All cell lines were cultivated under conditions recommended by the supplier. Growth inhibition was measured in microtiterplates. Aliquots of 120 μl of the suspended cells (50,000/ml) were given to 60 μl of a serial dilution of the inhibitor. After 5 days, growth was determined using the MTT assay.

Vo subunit c [2] = molecular target: T2, Vo subunit c (Manduca sexta, UniProt P31403); set-up: method as in PMID 12186879; conditions: previous study; ref [10]; cited from earlier work
T2 construct: from tissue; host or cells: midgut of Manduca sexta larvae (purified V-ATPase)
T2 sequence (P31403 whole entry): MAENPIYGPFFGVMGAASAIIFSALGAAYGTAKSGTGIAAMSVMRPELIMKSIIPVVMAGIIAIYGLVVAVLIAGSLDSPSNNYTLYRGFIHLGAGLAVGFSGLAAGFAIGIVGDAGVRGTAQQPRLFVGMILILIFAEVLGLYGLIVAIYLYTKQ

KB-V1 = test: Growth inhibition of multidrug-resistant KB-V1 cells (MTT assay), with or without verapamil; format: cell-based; conditions: 120 h; KB-V1, mdr human cervix carcinoma; without verapamil; MTT after 5 days
Experimental: The novel antibiotics archazolids and apicularens (Fig. 1) were checked for their impact on the cell growth of a variety of mammalian cell lines from different tissues (Tab. 1). […] Apicularen B was the only exception, with an average IC50 value two orders of magnitude higher. Growth inhibition of the multidrug-resistant cell line KB-V1 was also measured in the presence of verapamil. […] The data in Tab 1. show, that unlike the archazolids, the apicularens are poor substrates of Pgp. To visualize the impact of the antibiotics, PtK2 (potoroo kidney) cells were incubated with the inhibitors and stained for intact acidic lysosomes (Fig. 2). […] The same observation was made with KB-3-1 cells (data not shown). […] Unlike the cell lines listed in Tab. 1, the growth of PtK2 cells was not completely stopped. The same holds true for A-498 cells (human kidney carcinoma). Both cell lines grow epithelial-like. There was obviously a differential reaction of cell lines to V-ATPase inhibitors. For A-431 cells (human epidermoid carcinoma) a dependence on the expression of the EGF receptor was shown.
as §4

3Y1 = test: Growth inhibition of 3Y1 cells (MTT assay); format: cell-based, rat; conditions: read-out: IC50 growth inhibition
Experimental: as §4

M1 = test: Growth inhibition of M1 cells (MTT assay); format: cell-based, mouse; conditions: 120 h, read-out: IC50 growth inhibition
Experimental: as §4

[3] = molecular target: T3, V-ATPase holoenzyme from the midgut of the tobacco hornworm (Manduca sexta, UniProt P31403); set-up: method as in PMID 12186879; conditions: ref [10], cited from earlier work; for IC50: read-out: half-maximal inhibition concentration of purified V-ATPase
T3 construct: purified V-ATPase holoenzyme from the midgut of the tobacco hornworm; from tissue; host or cells: midgut of fifth instar Manduca sexta larvae
T3 sequence (P31403 whole entry): as above

L-929 = tested on: L-929; set-up: method as in PMID 12931860; conditions: L-929, murine connective tissue; ref [17]; read-out: IC50 growth inhibition; cited from earlier work
bacterial growth = conditions: ref [11],[15],[17]; cited from earlier work
[4] = molecular target: T3, V-ATPase holoenzyme from the midgut of the tobacco hornworm; test: Inhibition of purified V-ATPase holoenzyme activity; format: biochemical; conditions: for IC50 per mg of protein, purified V-ATPase: equivalent of the half-maximal concentration
Experimental: as §1, §2, §3
Fifth instar larvae of M. sexta (Lepidoptera, Sphingidae), weighing 6–8 g, were reared under long day conditions (16 h of light) at 27°C using a synthetic diet modified according to Bell et al.

Vo subunit c [5] = molecular target: T2, Vo subunit c; test: Protection of V-ATPase subunit c from photoaffinity labelling by I-concanolide A; format: binding; conditions: pre-incubation 100 μM or 10 μM, 60 min on ice; I-concanolide A 10 μM; UV
Experimental: Twenty micrograms of the samples were pre-incubated with the inhibitors for 1 h on ice. The labelled I-concanolide A was then added to give a final concentration of 10 μM. Controls were run without effectors. Mixtures with volumes of 40 μl were incubated for an additional 1 h on ice and then treated for 3 min with UV light (366 nm) on ice. After UV irradiation, 10 μl of 5-fold sample buffer was added, the mixture was heated for 45 s at 95°C, cooled on ice, and subjected to Tricine-SDS-PAGE (16.5% T, 3% C separating gel and 10%T, 3% C spacer gel), followed by Coomassie staining. The gels were sealed in plastic wrap before they were exposed to a phosphoscreen for up to 72 h and analyzed with the aid of a phosphoimager (Molecular Dynamics).

A-594 [6] = tested on: A-594; set-up: method as in PMID 10048565; conditions: A-594, human lung carcinoma; ref [15]; read-out: IC50 growth inhibition; cited from earlier work
F-ATPase [7] = molecular target: T4, F-ATPase (Mus musculus, UniProt P56480); test: Inhibition of F-ATPase activity in crude membranes from mouse heart; format: biochemical; conditions: mouse heart crude membranes
T4 construct: we prepared mitochondria rich crude membranes from mouse heart; from tissue; host or cells: mouse heart, crude membrane extract
Experimental: as §1, §2, §3

F-ATPase [8] = molecular target: T5, F-ATPase (Bos taurus, UniProt P00829); test: Inhibition of F-ATPase activity in submitochondrial particles from beef heart; format: biochemical; conditions: beef heart submitochondrial particles
T5 construct: Submitochondrial particles were obtained by ultrasonic treatment of the mitochondria; from tissue; host or cells: beef heart mitochondria, submitochondrial particles
Experimental: as §1, §2, §3

fungi = conditions: ref [11],[15],[17]; cited from earlier work
mammalian V-ATPases = conditions: ref [11],[15],[17]; cited from earlier work
V-ATPases from fungi = conditions: Saccharomyces cerevisiae or Neurospora crassa; ref [11],[15],[17]; cited from earlier work
[9] = 120 h, 3Y1, rat embryogenic fibroblast cell line, MTT after 5 days
[10] = M1, mouse embryogenic fibroblast cell line, MTT after 5 days

Compound | red LysoTracker staining indicating acidic lysosomes (PtK2 cells) | specific activity of Na+/K+-ATPase (Na+/K+-ATPase; experiment 1, control 19.0) | specific activity of Na+/K+-ATPase (Na+/K+-ATPase; experiment 2, control 15.9) | effect on Na+/K+-ATPase activity (Na+/K+-ATPase) | labelling of / binding to subunit c (Vo subunit c [2]) | IC50 (KB-V1) | IC50 (3Y1; [9]) | IC50 (M1; [10]) | IC50 per mg of protein, purified V-ATPase [3] | IC50 [3] | IC50 (L-929) | inhibition of bacterial growth (bacterial growth) | IC50 per mg of protein, purified V-ATPase [4] | labelling of subunit c by I-concanolide A after pre-incubation (Vo subunit c [5]) | further results
C/C=C/[C@H]1O[C@@](O)([C@@H](C)[C@H](O)[C@H](C)[C@H]2OC(=O)/C(OC)=C/C(C)=C/[C@@H](C)[C@@H](O)[C@@H](CC)[C@@H](O)[C@H](C)C/C(C)=C/C=C/[C@@H]2OC)C[C@@H](O[C@H]2C[C@@H](O)[C@H](OC(N)=O)[C@@H](C)O2)[C@@H]1C [concanamycin A, reference compound] | disappeared | 16.7 µmol/mg/min | 12.7 µmol/mg/min | slight inhibition of comparable size | prevented | 28 nM | 1.4 nM | 0.56 nM | ca. 0.5 nmol per mg of protein | ~10 nM | 0.23 nM | – | – | – | IC50 (A-594 [1]; A-594, human lung carcinoma, MTT after 5 days): 0.17 nM
CC/C=C\C=C/C(=O)N/C=C/C[C@H]1C[C@H]2C[C@H](O)C[C@H](Cc3cccc(O)c3C(=O)O1)O2 [apicularen A] | disappeared | 17.3 µmol/mg/min | 13.2 µmol/mg/min | only slightly affected | – | 23 nM | 3.2 nM | 1.4 nM | – | – | – | failed to inhibit | ca. 0.8 nmol per mg of protein | did not appear to interfere | IC50 ([4]; purified holoenzyme, 3–4 μg protein, pH 8.1, 30°C, read-out: half-maximal inhibition concentration of purified V-ATPase): ~20 nM; IC50 (A-594 [6]): 0.23 nM
archazolid | – | – | – | – | – | – | – | – | – | – | – | – | – | – | ATPase activity reduced to (remaining activity) (F-ATPase [7]; inhibitor 1 μM): approximately 80%; effect of increased inhibitor concentration on F-ATPase activity (F-ATPase [7]; inhibitor 10 μM): no substantial effect; ATPase activity reduced to (remaining activity) (F-ATPase [8]; inhibitor 1 μM): approximately 80%; effect of increased inhibitor concentration on F-ATPase activity (F-ATPase [8]; inhibitor 10 μM): no substantial effect; activity against fungi (fungi): weak activity
CNC(=O)O[C@@H](CC(C)C)c1nc([C@H]2OC(=O)/C(C)=C/C/C(C)=C/[C@@H](O)[C@@H](C)\C=C(C)/C=C(C)\C=C\[C@@H](O)[C@H](C)[C@H](OC)/C(C)=C/C=C/[C@@H]2C)cs1 [archazolid A] | disappeared | 17.1 µmol/mg/min | 12.2 µmol/mg/min | only slightly affected | – | 48 nM | – | – | – | – | 0.81 nM | failed to inhibit | ca. 0.8 nmol per mg of protein | completely abolished | IC50 (A-594 [1]; Homo sapiens): 0.54 nM; IC50 (3Y1; Rattus norvegicus, 3Y1, 120 h): 0.95 nM; IC50 (M1; Mus musculus, Fibroblast): 0.27 nM; IC50 [4]: ~20 nM
salicylihalamide | – | – | – | – | does not bind to subunit c | – | – | – | ca. 0.5 nmol per mg of protein | ~10 nM | – | failed to inhibit | – | – | inhibition of mammalian V-ATPases (mammalian V-ATPases): effectively inhibited; inhibition of V-ATPases from fungi (V-ATPases from fungi): not at all
